Measurements reported in ChEMBL document CHEMBL4680330, “Soloxolone methyl, as a 18βH-glycyrrhetinic acid derivate, may result in endoplasmic reticulum stress to induce apoptosis in breast cancer cells” (Bioorg Med Chem, 2021).

Legend:
MCF7 = experiment: Cytotoxicity against human MCF7 cells assessed as reduction in cell viability incubated for 48 hrs by ATP based luminometry; assay type: functional; settings: MCF7, 48 h
[1] = system: Epidermoid carcinoma cell line; experiment: Cytotoxicity against human Epidermoid carcinoma cell line; assay type: functional, cell-based
MDA-MB-231 [2] = experiment: Induction of apoptosis in human MDA-MB-231 cells assessed as PARP level at 4.39 uM incubated for 24 hrs by Western blot analysis (reference value: 1); assay type: functional
MDA-MB-231 [3] = experiment: Induction of apoptosis in human MDA-MB-231 cells assessed as cleaved PARP level at 4.39 uM incubated for 24 hrs by Western blot analysis (reference value: 1); assay type: functional
MDA-MB-231 [4] = experiment: Induction of apoptosis in human MDA-MB-231 cells assessed as pro-caspase 8 level at 4.39 uM incubated for 24 hrs by Western blot analysis (reference value: 1); assay type: functional
MDA-MB-231 [5] = experiment: Induction of apoptosis in human MDA-MB-231 cells assessed as cleaved pro-caspase 8 level at 4.39 uM incubated for 24 hrs by Western blot analysis (reference value: 1); assay type: functional
MDA-MB-231 [6] = experiment: Induction of apoptosis in human MDA-MB-231 cells assessed as pro-caspase 3 level at 4.39 uM incubated for 24 hrs by Western blot analysis (reference value: 1); assay type: functional
MDA-MB-231 [7] = experiment: Induction of apoptosis in human MDA-MB-231 cells assessed as cleaved pro-caspase 3 level at 4.39 uM incubated for 24 hrs by Western blot analysis (reference value: 1); assay type: functional
MDA-MB-231 [8] = experiment: Induction of endoplasmic reticulum stress in human MDA-MB-231 cells assessed as IRE1-alpha expression at 4.39 uM incubated for 24 hrs by Western blot analysis (reference value: 1); assay type: functional
MDA-MB-231 [9] = experiment: Induction of endoplasmic reticulum stress in human MDA-MB-231 cells assessed as BIP expression at 4.39 uM incubated for 24 hrs by Western blot analysis (reference value: 1); assay type: functional
MDA-MB-231 [10] = experiment: Induction of endoplasmic reticulum stress in human MDA-MB-231 cells assessed as CHOP expression at 4.39 uM incubated for 24 hrs by Western blot analysis (reference value: 1); assay type: functional

SMILES	IC50 (MCF7) [µM]	IC50 [1] [µM]	fold change (FC) (MDA-MB-231 [2])	fold change (FC) (MDA-MB-231 [3])	fold change (FC) (MDA-MB-231 [4])	fold change (FC) (MDA-MB-231 [5])	fold change (FC) (MDA-MB-231 [6])	fold change (FC) (MDA-MB-231 [7])	fold change (FC) (MDA-MB-231 [8])	fold change (FC) (MDA-MB-231 [9])	fold change (FC) (MDA-MB-231 [10])
CC1(C)[C@@H](O)CC[C@]2(C)[C@H]3C(=O)C=C4[C@@H]5C[C@@](C)(C(=O)O)CC[C@]5(C)CC[C@@]4(C)[C@]3(C)CC[C@@H]12 [ENOXOLONE]	32.6	≥ 0.3									
COc1cccc2c1C(=O)c1c(O)c3c(c(O)c1C2=O)C[C@@](O)(C(=O)CO)C[C@@H]3O[C@H]1C[C@H](N)[C@H](O)[C@H](C)O1 [DOXORUBICIN]			0.2	23.2	0.3	0.6	2.5	2	0.1	0.1	0.3
